Assay [1] deals with T1, ΔF508-CFTR (Homo sapiens, UniProt P13569, DEL508-508).
T1 construct: host or cells: CFBE41o-, doxycycline-inducible
Briefly: CFTR cell surface levels using HRP-tagged ΔF508-CFTR expressing CFBE cells, in the presence of a co-corrector. In kind it is cell-based. As to conditions: HRP-tagged ΔF508-CFTR CFBE cells, in the presence of 3 μM co-corrector; for EC50: read-out: EC50. In outline: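 Chemiluminescent read-out of surface HRP (15 min, dark) after PBS washes. Activity is normalized as 100×(sample−DMSO)/(3 μM co-corrector alone−DMSO).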

Assay [2] has as its target T1, ΔF508-CFTR. The assay is described as follows: CFTR cell surface levels using HRP-tagged ΔF508-CFTR expressing CFBE cells, intrinsic corrector capacity. The assay is classed as cell-based. Details: % Activation: concentration or dose not given beside the values. As to conditions: HRP-tagged ΔF508-CFTR expressing CFBE41o- cells, compound alone (intrinsic corrector capacity), 20 hours at 33° C.; for EC50: read-out: EC50. In outline: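 Read-out: chemiluminescent HRP activity of ECL4-HRP-tagged ΔF508-CFTR at the cell surface, 15 min substrate in dark. Normalized as 100×(sample−DMSO)/(positive control−DMSO).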

Structures are written as SMILES.

T1 sequence (P13569 with tags, fused parts or gaps DEL508-508): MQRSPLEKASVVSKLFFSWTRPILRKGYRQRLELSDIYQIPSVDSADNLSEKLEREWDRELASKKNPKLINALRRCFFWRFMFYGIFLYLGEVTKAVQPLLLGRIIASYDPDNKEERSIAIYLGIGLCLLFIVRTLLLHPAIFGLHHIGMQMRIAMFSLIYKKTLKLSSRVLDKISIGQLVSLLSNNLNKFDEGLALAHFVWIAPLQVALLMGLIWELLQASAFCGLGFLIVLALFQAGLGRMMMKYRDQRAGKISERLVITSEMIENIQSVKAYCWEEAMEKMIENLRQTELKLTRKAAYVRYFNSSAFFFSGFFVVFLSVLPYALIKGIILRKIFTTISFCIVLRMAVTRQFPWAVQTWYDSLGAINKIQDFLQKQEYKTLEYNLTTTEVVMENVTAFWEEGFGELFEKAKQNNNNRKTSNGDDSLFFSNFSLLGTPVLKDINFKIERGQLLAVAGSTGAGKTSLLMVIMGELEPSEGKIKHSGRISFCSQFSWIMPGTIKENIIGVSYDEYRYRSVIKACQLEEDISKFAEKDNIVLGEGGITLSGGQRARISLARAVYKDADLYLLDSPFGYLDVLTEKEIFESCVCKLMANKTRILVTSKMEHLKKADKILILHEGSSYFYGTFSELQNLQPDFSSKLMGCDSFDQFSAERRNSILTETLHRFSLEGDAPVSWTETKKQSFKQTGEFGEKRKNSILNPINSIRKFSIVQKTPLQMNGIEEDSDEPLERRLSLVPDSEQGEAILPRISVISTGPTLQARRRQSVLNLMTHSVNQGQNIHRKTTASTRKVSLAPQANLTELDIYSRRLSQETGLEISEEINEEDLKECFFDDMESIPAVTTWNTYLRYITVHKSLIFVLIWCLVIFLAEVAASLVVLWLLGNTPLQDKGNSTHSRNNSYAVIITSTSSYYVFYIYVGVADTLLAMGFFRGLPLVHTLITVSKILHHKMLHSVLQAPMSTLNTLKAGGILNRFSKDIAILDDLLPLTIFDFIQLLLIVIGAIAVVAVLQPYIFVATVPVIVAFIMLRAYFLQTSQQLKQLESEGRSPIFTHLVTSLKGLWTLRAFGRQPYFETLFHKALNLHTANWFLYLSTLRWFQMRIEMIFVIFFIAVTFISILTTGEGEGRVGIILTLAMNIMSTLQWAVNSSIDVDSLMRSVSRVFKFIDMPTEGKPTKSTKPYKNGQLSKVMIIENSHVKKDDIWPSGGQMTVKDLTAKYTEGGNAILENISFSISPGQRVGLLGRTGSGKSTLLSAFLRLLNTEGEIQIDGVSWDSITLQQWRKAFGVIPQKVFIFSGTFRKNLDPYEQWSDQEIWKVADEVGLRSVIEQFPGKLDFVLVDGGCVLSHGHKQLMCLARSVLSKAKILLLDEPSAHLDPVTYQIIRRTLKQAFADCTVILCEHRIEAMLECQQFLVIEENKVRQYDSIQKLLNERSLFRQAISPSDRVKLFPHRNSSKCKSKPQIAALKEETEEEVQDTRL

The term EC50 denotes the concentration at which the effect is half-maximal. Consider `CS(=O)(=O)NC(=O)c1cc(-c2ccc(N3CCC(C#N)CC3)nc2)c2c(n1)n(-c1ccccc1)nc2[C@H]1C[C@H](F)C1` [Compound 210, 4-[6-(4-cyanopiperidin-1-yl)pyridin-3-yl]-3-(trans-3-fluorocyclobutyl)-N-(methanesulfonyl)-1-phenyl-1H-pyrazolo[3,4-b]pyridine-6-carboxamide], for which, at ΔF508-CFTR [1], the “% Activation” value is 390.57% and the EC50 came to 0.174 µM. On ΔF508-CFTR [2], the “% Activation” value worked out at 205.57% and the EC50 was determined as 0.286 µM.

Turning to `CO[C@H]1CC[C@@H](Oc2cc(C(=O)NS(C)(=O)=O)nc3c2c(C2CCC2)nn3-c2ccccc2)CC1` [Compound 211, 3-cyclobutyl-N-(methanesulfonyl)-4-[(cis-4-methoxycyclohexyl)oxy]-1-phenyl-1H-pyrazolo[3,4-b]pyridine-6-carboxamide], the “% Activation” value at ΔF508-CFTR [1] is recorded as 288.3%; on ΔF508-CFTR [2], 114.4%. Further, the values for the EC50 on ΔF508-CFTR [1] and at ΔF508-CFTR [2] were 0.293 µM and 0.608 µM, respectively.

In the case of `CO[C@H]1CC[C@H](Oc2cc(C(=O)NS(C)(=O)=O)nc3c2c(C2CCC2)nn3-c2ccccc2)CC1` [Compound 212, 3-cyclobutyl-N-(methanesulfonyl)-4-[(trans-4-methoxycyclohexyl)oxy]-1-phenyl-1H-pyrazolo[3,4-b]pyridine-6-carboxamide], at ΔF508-CFTR [1], the “% Activation” value came out at 290.43% and the EC50 was 0.324 µM. Moreover, on ΔF508-CFTR [2], the “% Activation” value is on record as 114.63% and the concentration for a half-maximal effect (EC50) turned out to be 0.621 µM.

With `CS(=O)(=O)NC(=O)c1cc(N2CCC(COCc3ccccc3)CC2)c2c(C3CCC3)nn(-c3ccccc3)c2n1` [Compound 213, 4-{4-[(benzyloxy)methyl]piperidin-1-yl}-3-cyclobutyl-N-(methanesulfonyl)-1-phenyl-1H-pyrazolo[3,4-b]pyridine-6-carboxamide], on ΔF508-CFTR [1], the “% Activation” value is recorded as 469.6% and the EC50 came to 0.337 µM. Moreover, on ΔF508-CFTR [2], the “% Activation” value is 267.5% and the EC50 came to 0.546 µM.

In the case of `CS(=O)(=O)NC(=O)c1cc(N2CC3(CCC3)C2)c2c(C3CCC3)nn(-c3ccccc3)c2n1` [Compound 214, 4-(2-azaspiro[3.3]heptan-2-yl)-3-cyclobutyl-N-(methanesulfonyl)-1-phenyl-1H-pyrazolo[3,4-b]pyridine-6-carboxamide], at ΔF508-CFTR [1], the “% Activation” value turned out to be 250.55% and the EC50 was determined as 0.384 µM. At ΔF508-CFTR [2], the “% Activation” value is reported as 103.6% and the EC50 came to 1.01 µM.

For `CC(=O)N1CCC2CN(c3cc(C(=O)NS(C)(=O)=O)nc4c3c(C3CCC3)nn4-c3ccccc3)CCC21` (stereo not drawn) [Compound 216, 4-(1-acetyloctahydro-5H-pyrrolo[3,2-c]pyridin-5-yl)-3-cyclobutyl-N-(methanesulfonyl)-1-phenyl-1H-pyrazolo[3,4-b]pyridine-6-carboxamide], on ΔF508-CFTR [1], the “% Activation” value was 456.1% and the EC50 amounted to 0.3 µM. At ΔF508-CFTR [2], the “% Activation” value was 275.67% and the EC50 turned out to be 0.766 µM.

With `COC1CCN(c2cc(C(=O)NS(C)(=O)=O)nc3c2c(C(C)C)nn3-c2cccc(N3CCOCC3)n2)CC1` [Compound 217, N-(methanesulfonyl)-4-(4-methoxypiperidin-1-yl)-1-[6-(morpholin-4-yl)pyridin-2-yl]-3-(propan-2-yl)-1H-pyrazolo[3,4-b]pyridine-6-carboxamide], on ΔF508-CFTR [1], the “% Activation” value is reported as 418.27% and the EC50 is 0.257 µM. Moreover, on ΔF508-CFTR [2], the “% Activation” value turned out to be 246.77% and the EC50 worked out at 0.458 µM.

Consider `COCC1CCN(c2cc(C(=O)NS(C)(=O)=O)nc3c2c(C(C)C)nn3C2CCCCC2)CC1` [Compound 218, 1-cyclohexyl-N-(methanesulfonyl)-4-[4-(methoxymethyl)piperidin-1-yl]-3-(propan-2-yl)-1H-pyrazolo[3,4-b]pyridine-6-carboxamide], for which the “% Activation” value came out at 476.9% at ΔF508-CFTR [1] and 268.37% on ΔF508-CFTR [2]. The EC50 on ΔF508-CFTR [1] is 0.239 µM; on ΔF508-CFTR [2], 0.39 µM.

As for `CS(=O)(=O)NC(=O)c1cc(N2CCC(CF)CC2)c2c(C3CCC3)nn(-c3ccccc3)c2n1` [Compound 220, 3-cyclobutyl-4-[4-(fluoromethyl)piperidin-1-yl]-N-(methanesulfonyl)-1-phenyl-1H-pyrazolo[3,4-b]pyridine-6-carboxamide], the results for the “% Activation” value on ΔF508-CFTR [1] and at ΔF508-CFTR [2] were 389.9% and 202.5%, respectively. The EC50 on ΔF508-CFTR [1] was 0.208 µM; at ΔF508-CFTR [2], 0.348 µM.

`CS(=O)(=O)NC(=O)c1cc(N2CCC3(CCCCC3)CC2)c2c(C3CCC3)nn(-c3ccccc3)c2n1` [Compound 222, 4-(3-azaspiro[5.5]undecan-3-yl)-3-cyclobutyl-N-(methanesulfonyl)-1-phenyl-1H-pyrazolo[3,4-b]pyridine-6-carboxamide]: at ΔF508-CFTR [1], the “% Activation” value is listed as 247.3% and the EC50 is 1.79 µM. Besides, at ΔF508-CFTR [2], the “% Activation” value came to 65.685% and the EC50 amounted to 1.42 µM.

Consider `CCS(=O)(=O)NC(=O)c1cc(-c2ccc(N3CCOCC3)cc2)c2c(C(C)C)nn(-c3ccc(F)c(F)c3)c2n1` [Compound 223, 1-(3,4-difluorophenyl)-N-(ethanesulfonyl)-4-[4-(morpholin-4-yl)phenyl]-3-(propan-2-yl)-1H-pyrazolo[3,4-b]pyridine-6-carboxamide], for which, on ΔF508-CFTR [1], the “% Activation” value was 438.2% and the EC50 was found to be 0.371 µM. On ΔF508-CFTR [2], the “% Activation” value worked out at 258.95% and the EC50 stood at 0.469 µM.

For `CCS(=O)(=O)NC(=O)c1cc(-c2ccc(N(C)C3CCOCC3)nc2)c2c(C(C)C)nn(-c3cccc(F)c3)c2n1` [Compound 224, N-(ethanesulfonyl)-1-(3-fluorophenyl)-4-{6-[methyl(oxan-4-yl)amino]pyridin-3-yl}-3-(propan-2-yl)-1H-pyrazolo[3,4-b]pyridine-6-carboxamide], at ΔF508-CFTR [1], the “% Activation” value turned out to be 453.1% and the concentration for a half-maximal effect (EC50) was determined as 0.482 µM. For the same compound, at ΔF508-CFTR [2], the “% Activation” value stood at 228.8% and the EC50 came out at 0.544 µM.

Turning to `CC(C)Oc1nn(-c2ccccc2)c2nc(C(=O)NS(=O)(=O)C3CC3)cc(-c3ccc(N4CCOCC4)cc3)c12` [Compound 225, N-(cyclopropanesulfonyl)-4-[4-(morpholin-4-yl)phenyl]-1-phenyl-3-[(propan-2-yl)oxy]-1H-pyrazolo[3,4-b]pyridine-6-carboxamide], the “% Activation” value at ΔF508-CFTR [1] is 427.95%; at ΔF508-CFTR [2] it was 215.35%. Moreover, the EC50 came to 0.579 µM at ΔF508-CFTR [1] and 0.456 µM on ΔF508-CFTR [2].

For the compound `CC(C)c1nn(-c2ccnc(N3CCOCC3)c2)c2nc(C(=O)NS(C)(=O)=O)cc(-c3ccc(N4CCC(C#N)CC4)nc3)c12` [Compound 227, 4-[6-(4-cyanopiperidin-1-yl)pyridin-3-yl]-N-(methanesulfonyl)-1-[2-(morpholin-4-yl)pyridin-4-yl]-3-(propan-2-yl)-1H-pyrazolo[3,4-b]pyridine-6-carboxamide], on ΔF508-CFTR [1], the “% Activation” value came to 378.2% and the EC50 was determined as 0.307 µM. In addition, on ΔF508-CFTR [2], the “% Activation” value turned out to be 216.8% and the EC50 was 0.449 µM.

As for `COCCS(=O)(=O)NC(=O)c1cc(-c2ccc(OC)cc2)c2c(C)nn(CC(C)C)c2n1` [Compound 231, N-(2-methoxyethanesulfonyl)-4-(4-methoxyphenyl)-3-methyl-1-(2-methylpropyl)-1H-pyrazolo[3,4-b]pyridine-6-carboxamide], on ΔF508-CFTR [1], the “% Activation” value came out at 329.9% and the half-maximal effective concentration (EC50) was determined as 0.518 µM. Besides, at ΔF508-CFTR [2], the “% Activation” value is recorded as 162.9% and the EC50 is 0.939 µM.

The values are drawn from patent US10259810B2, “N-sulfonylated pyrazolo[3,4-b]pyridin-6-carboxamides and method of use” (AbbVie S.à.r.l., priority 2015, dated 2019).
